Results on one molecule are retold here after article PMC4966941 (PLoS ONE, 2016).

Where a name gives a salt, the structure may show the parent alone.

Data set [1] relates to Staphylococcus aureus Xen 36. Briefly: In-vivo infection prevention study: microbiological analysis of explanted tissue. On the procedure: Bioluminescent strain Staphylococcus aureus Xen 36 (Caliper LifeSciences, Alameda, CA) was used to develop bone infection. The strain was stored in a glycerol (20% v/v) and Brain Heart Infusion (BHI) suspension at -80°C until required. Bacteria were subcultured onto an LB plate (Luria-Bertani, Miller broth mixed with 1.2% (w/v) Technical Agar (Difco, Sparks, MD.)), at 37°C overnight. Five colonies were then transferred to 3 mL LB broth and grown in shaker incubator (200 rpm), at 37°C for 2.5 h. Two milliliters of the bacterial suspension was transferred to 100 mL LB broth and grown for a further 4 h, until the cells reached exponential growth. Bacterial suspension was transferred into 50 mL centrifuge tubes and cells centrifuged at ~3,000 rpm for 30 min. Supernatants were discarded and pellets were re-suspended in 15 mL Phosphate Buffered Saline (PBS). Cells were then mixed by vortexing and the centrifugation process was repeated. This cell washing process was repeated three times. The final washed and pelleted cells were re-suspended in a total of 10 mL PBS, and mixed by vortexing. The cell suspension was then ten-fold serially diluted. The concentration of the cell suspension was then determined using the spread plate technique and spreading 100 μL of the various dilutions onto LB plates, in duplicate. Plates were incubated at 37°C overnight before counting colony forming units (CFU). The viable count was then used to dilute the washed cell suspension to the desired concentrations (i.e., average Log10 7.82 CFU/mL or 6.62x10^7 CFU/mL) using PBS. Two hundred microliter aliquots were dispensed into microfuge tubes and labeled bacterial inoculum. To inoculate the rat tibias the bacterial inoculum was mixed with equal volume of 1% (w/v) molten agarose (Pulsed field certified agarose, Biorad, Hercules, CA). Mixing the bacteria with agarose helped to control seepage of the inoculum and minimize contamination of the surrounding muscle.
After sacrificing the rats, the tibia and gastrocnemius muscle surrounding the surgical site were explanted, weighed separately and flash frozen with liquid nitrogen prior to pulverizing in a freezer mill (6770 Spex SamplePrep, Metuchen, NJ.). The powdered samples were then re-weighed, suspended (i.e., 1:10) in phosphate buffered saline (PBS), vortexed, and 10-fold serially diluted before plating (in duplicate) 100 μL of suspensions onto LB plates (Luria-Bertani, Miller broth mixed with 1.2% (w/v) Technical Agar (Difco, Sparks, MD.)). Plates were incubated at 37°C for 18–24 h and the bacterial load (colony forming units) per sample was calculated based on the number of colonies seen at specific dilutions. Confirmation of isolating S. aureus Xen 36 colonies from samples was determined using the IVIS (Lumina II, Caliper Life Science, Hopkinton, MA.). Non-bioluminescent colonies were confirmed as S. aureus using Gram staining, catalase test and Color Staph ID kit (Sure-Vue, Fisher Scientific, Houston TX.).

The conditions of data set [2]: patient with normal renal function, intravenous infusion; ref [11], [21]; cited from earlier work.
For data set [3], the system named is osteosarcoma cell line MG-63. Also noted: method as in Edin et al. [38]. Conditions: MG-63 in vitro; ref Edin et al. [38]; cited from earlier work.
Data set [4] has as its system chondrocyte (N1511) cells. Further details: method as in Antoci et al. [39]. As to conditions: ref Antoci et al. [39]; cited from earlier work.

In the case of `CN[C@H](CC(C)C)C(=O)N[C@H]1C(=O)N[C@@H](CC(N)=O)C(=O)N[C@H]2C(=O)N[C@H]3C(=O)N[C@H](C(=O)N[C@H](C(=O)O)c4cc(O)cc(O)c4-c4cc3ccc4O)[C@H](O)c3ccc(c(Cl)c3)Oc3cc2cc(c3O[C@@H]2O[C@H](CO)[C@@H](O)[C@H](O)[C@H]2O[C@H]2C[C@](C)(N)[C@H](O)[C@H](C)O2)Oc2ccc(cc2Cl)[C@H]1O` [vancomycin, vancomycin hydrochloride], the “Viable bacteria in tibia of treated rats” value in data set [1] (rat tibia inoculated with S. aureus Xen 36, single 25 mg/Kg intramedullary dose, end of 14-day study) is on record as less than 200 CFU/g. Also, the “Signs of infection around the surgical site” value in data set [1] (rat, S. aureus Xen 36, prophylactic single 25 mg/Kg intramedullary dose, 14 days) is reported as “no signs of infection”. In data set [1] (rat, S. aureus Xen 36, single 25 mg/Kg intramedullary dose, end of study), the “Bacteria in the muscle and plasma samples of treated rats” value was “No bacteria were detected”. In data set [1] (treated rats, explanted muscle at end of 14-day study, mean of n = 9, values of 100 CFU = below detection limit), the “Ave Log10 CFU/muscle” value is listed as 2.00 Log10 CFU/muscle. For the same molecule, the “Ave Log10 CFU/tibia” value in data set [1] (treated rats, explanted tibia at end of 14-day study, mean of n = 9, values of 100 CFU = below detection limit) is 2.09 Log10 CFU/tibia. In addition, in data set [1] (treated, end of study, rat K-11, 2.00 = below detection limit), the “Log10 CFU/tibia” value turned out to be 2.81 Log10 CFU/tibia. The Elimination half-life result in data set [2] is recorded as “approximately 6 hours”. Moreover, the “Vancomycin concentration that caused cell death” value in data set [3] is on record as 10 mg/mL. The “Doses that severely decreased cellular proliferation” value in data set [4] is recorded as “greater than 2 mg/mL”.
